According to patent US20160346406A1, “METHOD FOR INCREASING THE INTRAOCULAR PRESSURE IN AN ANIMAL” (INSTITUT NATIONAL DE LA SANTE ET DE LA RECHERCHE MEDICALE …, priority 2011, published 2016):
“Also recorded” adds a separate entry of the source.

Legend:
[1] = Dose-dependent effects of subconjunctival injections of BAK on intraocular pressure; format: in vivo; details: 3 subconjunctival injections (0.15 mL, each 48 h)
Method: A series of 3 subconjunctival injections with 0.01% BAK (n=3), 0.05% BAK (n=3), 0.1%, BAK (n=6) or the vehicle (n=4) was performed (0.15 mL, each 48 h during 6 days) in the right eye of animals. Intraocular pressure was measured using a handled tonometer every two days from D0 to D28. Intraocular pressure is expressed as the difference between the treated eye (right) and the left control eye.

Long-Evans rats [2] = assay: In vivo outflow facility measurement; design: species or system rat; details: six days after second injection of 0.1% BAK; infusion 0.1, 0.2, 0.3 μL/min; vs vehicle-injected control eyes
Method: Six days after the second injection of BAK, trabecular outflow facility was measured in vivo under general anaesthesia. The eyes were anteriorly canulated with a 30-G needle connected by tubing to a 1 mL syringe filled with PBS and loaded into a microdialysis infusion pump. Intraocular pressure was measured after a 10-min stabilization period for three different infusion flow rates (0.1, 0.2, and 0.3 μL/min). Aqueous humor outflow facility was calculated as the reciprocal of the slope of the respective ocular pressure/flow rate curves. Outflow facility (OF) was decreased in BAK-injected eyes as compared to vehicle-injected control eyes.
Six days after the second injection of BAK, trabecular outflow facility was measured in vivo under general anaesthesia (intraperitoneal injection of ketamine 75 mg/kg and xylazine 10 mg/kg). Briefly, the eyes were anteriorly canulated with a 30-G needle connected by tubing to a 1 mL syringe filled with PBS and loaded into a microdialysis infusion pump (World Precision instruments). Intraocular pressure was measured after a 10-min stabilization period for three different infusion flow rates (0.1, 0.2, and 0.3 μL/min). Aqueous humor outflow facility (μL/min/mmHg) was calculated as the reciprocal of the slope of the respective ocular pressure/flow rate curves.

trabecular cells = assay: Ex vivo trabecular cell apoptosis (TUNEL labelling); format: in vivo, rat; details: BAK-injected eyes vs controls, end of experiments; P<0.01
Method: At the end of the experiments, animals were euthanized and the eyes were immediately conditioned for TUNEL labelling. Eyes were fixed in 4% paraformaldehyde, embedded in an optimal cutting-temperature compound (OCT, Tissue-Tek, Miles Inc, Bayer Diagnostic, Puteaux, France) and cut into 15-μm cryosections. A terminal deoxynucleotidyl transferase-mediated dUTP nick-end labelling (TUNEL) assay (Roche Diagnostics, Meylan, France) was performed to detect apoptosis in rat ocular tissues following the manufacturer's instructions. Specimens were mounted in aqueous mounting medium with DAPI to be further analyzed using light epifluorescence microscopy.

Long-Evans rats [3] = assay: Intra-ocular pressure monitoring after two subconjunctival injections of 0.1% BAK; format: in vivo, rat
Method: Six male 8-week-old Long-Evans rats weighing 300-350 g were used. At D0, first subconjunctival injection of 0.1% BAK (100 μL) was performed in the right eye whereas the left eye received 0.9% NaCl vehicle only as control. A second injection was performed seven days after following the same protocol. Animals were daily monitored for intra-ocular pressure using a handheld tonometer, without sedation.
Six male 8-week-old Long-Evans rats weighing 300-350 g were used. Animals were kept in pathogen-free conditions with food and water available ad libitum and housed in a 12-h light/12-h dark cycle. Ocular integrity was checked using the slit lamp biomicroscope. At D0, first subconjunctival injection of 0.1% BAK (100 μL) was performed in the right eye whereas the left eye received PBS only as control. A second injection was performed seven days after following the same protocol. Animals were daily monitored for intra-ocular pressure using a handheld tonometer (TonoLab, Medtronics, Jacksonville, Fla., USA) without sedation. All experiments were conducted in accordance with the Association for Research in Vision and Ophthalmology for the Use of Animals in Ophthalmic research.

ocular surface = assay: In vivo assessment of BAK injection toxicity to the ocular surface (in vivo confocal microscopy, IVCM)
Method: In vivo confocal microscopy (IVCM) using the Heidelberg Retina Tomograph II/Rostock Cornea Module (Heidelberg Engineering GmbH, Heidelberg, Germany) laser-scanning was carried out to assess putative damage to the ocular surface. Images size was 400 per 400 hundred pixels with a lateral resolution of 1 micrometer and an axial resolution of 2 micrometers. […] IVCM scores were used to evaluate ocular surface toxicity profiles in the 4 groups (vehicle, 0.01% BAK, 0.05% BAK, and 0.1% BAK) in different histological regions (superficial epithelium, basal epithelium, anterior stroma, limb and conjunctival stroma), 30 days after the first BAK administration (see Table 1). […] [table]

## benzalkonium chloride [BAK]
[1]; 0.05% BAK, D9
  intraocular pressure, difference between treated eye and left control eye: significant ocular hypertension
[1]; 0.1% BAK, D7, D11 and D14
  intraocular pressure, difference between treated eye and left control eye: significant increase
[1]; other times or BAK concentrations (0.01% BAK), D0 to D28
  intraocular pressure, difference between treated eye and left control eye: did not show significant changes
Long-Evans rats [2]
  trabecular (aqueous humor) outflow facility: decreased; also recorded: low trabecular outflow facility
Trabecular cells
  trabecular apoptotic cells (TUNEL labelling): Significant difference; also recorded: increased
Long-Evans rats [3]; 0.1% BAK (100 μL) subconjunctival at D0 and seven days after, vs control eyes, D9 and D14, P<0.01
  intra-ocular pressure after second injection: significantly rose and remained significantly elevated; also recorded: Significant difference; also recorded: became significant
Long-Evans rats [3]; 0.1% BAK (100 μL) subconjunctival, right eye, vs vehicle control eye, D7
  intra-ocular pressure after first injection: no effect; also recorded: slight increase
Ocular surface; 0.01% BAK (n=3)
  IVCM subscore: limbus and conjunctiva, animals with peripheral vasodilatation: one
Ocular surface; 0.1% BAK (n=6)
  IVCM subscore: limbus and conjunctiva, animals with peripheral vasodilatation: three
Ocular surface; 4 groups (vehicle, 0.01%, 0.05%, 0.1% BAK)
  IVCM subscore: basal epithelium: unchanged
Ocular surface; BAK 0.1% group
  IVCM subscore: anterior stroma: trend for hyperplasia of the subbasal nerve plexi
Ocular surface; all BAK concentrations
  IVCM: posterior stroma and endothelium toxicity: no toxicity was found
Ocular surface; all the animals
  IVCM subscore: superficial epithelium: slight epithelial swelling
Ocular surface; vehicle, 0.01%, 0.05% and 0.1% BAK groups, 30 days after first BAK administration, Kruskal Wallis test, p>0.05
  overall IVCM score (ocular surface toxicity): No significant difference; also recorded: No statistical difference
Ocular surface; whatever the BAK concentration
  anterior eye abnormality / ocular surface pathological changes: Neither anterior eye abnormality nor ocular surface pathological changes were found
